“And” between values parts separate entries of the source, which are not always exact repeats. Equal entries are not always repeated. Where two headings read alike, the source gives them in different places.
Assays:
[1] = tested on: human pancreatic cancer PANC-1 cells; assay: Cell viability MTT assay, PANC-1; type: cell-based; details: read-out: PANC-1 (GI50)
Description: (§1) The human pancreatic cancer cell lines, PANC-1 and MiaPaCa-2, human lung cancer A549 cells, human breast cancer MCF-7, and human glioma U87 cells were obtained from the Korean cell line bank (Seoul, Korea). The cells were cultured in Dulbecco’s Modified Eagle Medium (DMEM; ThermoFisher Scientific, Waltham, MA) supplemented with 10% fetal bovine serum (FBS; Sigma-Aldrich) and 1% penicillin/streptomycin (ThermoFisher Scientific). The cells were cultured at 37 °C in an atmosphere containing 5% CO2.
(§2) The potential cytotoxicity of compounds at different concentrations was evaluated using the MTT assay. Briefly, cancer cell lines were pre-incubated in 96-well plates with compounds for 48 h. Subsequently, MTT working solution (2 mg/mL in phosphate buffer solution) was added to each well and the plate was incubated for 4 h at 37 °C in an atmosphere containing 5% CO2. Then, the conditioned media were aspirated, and the formed formazan crystals in living cells were quantified using the microplate reader (Spectramax M2) at 540 nm. The concentrations that produce 50% cell growth inhibition (GI50) were calculated by curves constructed by the plot of cell survival by an assistant of PRISM software (GraphPad, San Diego, CA).

[2] = target: T1, purified recombinant human LDHA protein (Homo sapiens, UniProt P00338); assay: In vitro LDHA inhibitor activity (NADH fluorescence decrease); type: biochemical; details: for LDHB/LDHA: ratio of LDHB IC50 to LDHA IC50 (selectivity)
T1 construct: purchased Abcam
Description: (§3) The in vitro evaluation of the LDHA inhibitor activities of the synthesized compounds was determined by the NADH intensity decrease through oxidation in a solution of HEPES-K^+, NADH, and pyruvate at a pH = 7.2. The NADH oxidation fluorescence intensity was measured using a spectrofluorometer at 340 nm excitation and 460 nm emission wavelengths, representing the NADH-specific fluorescence spectrum. Furthermore, the in vitro evaluation of the LDHB inhibitor activity was determined as a reverse reaction, which converts lactate to pyruvate by determining the amount of NAD^+ converted to NADH using the above-mentioned spectrophotometric experimental setting (Table 2). Based on this analysis, the half-maximal inhibitory concentration (IC50) of the synthesized compounds was obtained.
In vitro evaluation on LDHA inhibitor activity. LDHA activity assay was performed in accordance with previous studies[16],[18]. Briefly, the various concentrations of compounds were incubated with reaction buffer containing 20 mM HEPES-K^+, 20 μM NADH, 2 mM pyruvate, and 100 ng of purified recombinant human LDHA protein (Abcam, Cambridge, UK). The fluorescence of NADH, which has an excitation wavelength of 340 nm and an emission wavelength of 460 nm, was detected using a microplate spectrofluorometer (Spectramax M2; Molecular Devices, Sunnyvale, CA).

[3] = target: T2, purified recombinant human LDHB protein (Homo sapiens, UniProt P07195); assay: In vitro LDHB activity assay (NAD+ converted to NADH); type: biochemical
T2 construct: purchased Abcam
Description: as §3
In vitro analysis was determined the amount of NAD^+ converted to NADH[33]. The assay mixture composed of 100 mM Tris–HCl buffer (pH 8.0), 200 mM sodium L-lactate, 2.5 mM NAD^+, and 100 ng of purified recombinant human LDHB protein (Abcam). The fluorescence intensity of NADH was measured using a spectrofluorometer (Spectramax M2) at 340 nm as excitation wavelength and 460 nm as emission wavelength which is the specific fluorescence of NADH.

[4] = tested on: human lung cancer A549 cells; assay: Cell viability MTT assay, A549; type: cell-based; details: read-out: A549 (GI50)
Description: as §1, §2

[5] = tested on: human breast cancer MCF-7; assay: Cell viability MTT assay, MCF-7; type: cell-based; details: read-out: MCF-7 (GI50)
Description: as §1, §2

[6] = tested on: human pancreatic cancer MiaPaCa-2 cells; assay: Cell viability MTT assay, MiaPaCa-2; type: cell-based; details: read-out: MiaPaCa-2 (GI50)
Description: as §1, §2

human glioma U87 cells = assay: Cell viability MTT assay, U87; type: cell-based; details: U-87 MG, 48 h, read-out: U87 (GI50)
Description: as §1, §2

in vitro [7] = type: in vitro ADME, human; details: human, plasma
Description: (§4) Human and rat plasma (Sigma-Aldrich) are incubated at 37 °C with test compounds. During the incubation, aliquots are withdrawn at 0, 30, 120 min time points and acetonitrile solution (containing chlorpropamide) is added. After vortexing, the aliquots are centrifuged and the supernatant is withdrawn for analysis by LC–MS/MS.

in vitro [8] = type: in vitro ADME, rat; details: rat, plasma
Description: as §4

CYP1A2 = target: T3, CYP1A2 (Homo sapiens, UniProt P05177); assay: CYP isozymes activity assay, CYP1A2; type: in vitro ADME; details: pooled human liver microsomes, phenacetin; ketoconazole at 0.1 µM
T3 construct: Pooled Human liver microsomes (Sigma-Aldrich; 0.25 mg/mL); tissue Sigma-Aldrich; host or cells: pooled human liver microsomes
T3 sequence (P05177 1-516): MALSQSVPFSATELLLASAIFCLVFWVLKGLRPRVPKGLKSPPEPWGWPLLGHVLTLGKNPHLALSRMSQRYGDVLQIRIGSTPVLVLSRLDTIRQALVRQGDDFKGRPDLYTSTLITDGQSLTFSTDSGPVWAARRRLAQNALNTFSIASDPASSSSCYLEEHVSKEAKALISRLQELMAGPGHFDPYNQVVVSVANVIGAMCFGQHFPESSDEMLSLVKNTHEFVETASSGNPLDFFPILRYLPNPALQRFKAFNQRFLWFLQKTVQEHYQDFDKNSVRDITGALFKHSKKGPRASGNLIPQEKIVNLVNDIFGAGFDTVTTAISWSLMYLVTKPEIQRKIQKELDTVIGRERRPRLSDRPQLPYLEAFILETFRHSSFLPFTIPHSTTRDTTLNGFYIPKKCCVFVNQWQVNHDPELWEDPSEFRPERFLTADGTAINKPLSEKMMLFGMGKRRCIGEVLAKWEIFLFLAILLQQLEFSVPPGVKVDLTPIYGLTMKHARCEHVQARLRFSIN
Description: (§5) Pooled Human liver microsomes (Sigma-Aldrich; 0.25 mg/mL), 0.1 M phosphate buffer solution (pH 7.4), the five most commonly used substrate cocktails, such as 50 µM phenacetin (CYP1A2), 10 µM diclofenac […], 100 µM S-mephenytoin (CYP2C19) 5 µM dextromethorphan (CYP2D6), and 2.5 µM midazolam (CYP3A4), and compound 10 are pre-incubated at 37 °C for 5 min, then incubated with NADPH generation system solution for 15 min. To finish the enzymatic reaction, an acetonitrile solution (containing terfenadine) is added. The reaction tubes are centrifuged and the supernatant is withdrawn for analysis by LC–MS/MS.

CYP2C9 = target: T4, CYP2C9 (Homo sapiens, UniProt P11712); assay: CYP isozymes activity assay, CYP2C9; type: in vitro ADME; details: pooled human liver microsomes, diclofenac; ketoconazole at 0.1 µM
T4 construct: Pooled Human liver microsomes (Sigma-Aldrich; 0.25 mg/mL); tissue Sigma-Aldrich; host or cells: pooled human liver microsomes
Description: as §5

CYP2C19 = target: T5, CYP2C19 (Homo sapiens, UniProt P33261); assay: CYP isozymes activity assay, CYP2C19; type: in vitro ADME; details: pooled human liver microsomes, S-mephenytoin; ketoconazole at 0.1 µM
T5 construct: Pooled Human liver microsomes (Sigma-Aldrich; 0.25 mg/mL); tissue Sigma-Aldrich; host or cells: pooled human liver microsomes
Description: as §5

LDHA = details: cited from earlier work; for LDHA inhibitory activity: at concentrations up to 1 mM
several cancer cells = assay: Cell viability MTT assay, several cancer cells; type: cell-based; details: Homo sapiens, cell line not given, read-out: concentration of half-maximal growth inhibition (GI50)
Description: To assess the anticancer potency of these compounds in several cancer cells, we determined the cell toxicities of these compounds using an MTT assay. […] On the other hand, compound 10 has higher cytotoxicity compared to other compounds in various cancer cell lines. […] There is a small difference between standard compounds and compound 10 in growth inhibition of PANC-1 cells.
as §2

[9] = synthesized compounds, read-out: LDHA IC50
[10] = synthesized compounds, read-out: LDHB IC50
[11] = Homo sapiens, PANC-1, MTT, 48 h

T2 sequence (P07195 whole entry): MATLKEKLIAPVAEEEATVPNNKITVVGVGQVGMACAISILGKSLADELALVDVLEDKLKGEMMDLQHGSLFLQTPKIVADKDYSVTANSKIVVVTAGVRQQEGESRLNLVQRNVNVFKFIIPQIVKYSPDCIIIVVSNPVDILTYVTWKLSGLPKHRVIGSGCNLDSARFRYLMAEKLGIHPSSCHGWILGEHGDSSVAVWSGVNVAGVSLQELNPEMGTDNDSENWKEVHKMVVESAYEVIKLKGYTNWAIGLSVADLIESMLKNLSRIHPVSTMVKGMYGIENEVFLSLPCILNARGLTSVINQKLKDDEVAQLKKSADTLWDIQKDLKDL
T5 sequence (P33261 whole entry): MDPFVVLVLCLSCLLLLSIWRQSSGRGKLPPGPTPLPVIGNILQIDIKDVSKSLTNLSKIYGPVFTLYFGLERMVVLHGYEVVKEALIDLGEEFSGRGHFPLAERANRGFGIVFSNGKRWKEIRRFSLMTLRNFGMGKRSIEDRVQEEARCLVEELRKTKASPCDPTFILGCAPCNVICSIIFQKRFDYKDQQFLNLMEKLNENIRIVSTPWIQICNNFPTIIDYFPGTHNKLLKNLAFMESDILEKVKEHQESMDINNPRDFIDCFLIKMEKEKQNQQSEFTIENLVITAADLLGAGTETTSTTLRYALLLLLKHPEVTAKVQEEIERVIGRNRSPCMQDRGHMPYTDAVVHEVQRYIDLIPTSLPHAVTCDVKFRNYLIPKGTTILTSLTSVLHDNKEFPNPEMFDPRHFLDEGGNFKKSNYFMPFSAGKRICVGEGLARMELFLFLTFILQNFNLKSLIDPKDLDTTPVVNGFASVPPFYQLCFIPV
T4 sequence (P11712 whole entry): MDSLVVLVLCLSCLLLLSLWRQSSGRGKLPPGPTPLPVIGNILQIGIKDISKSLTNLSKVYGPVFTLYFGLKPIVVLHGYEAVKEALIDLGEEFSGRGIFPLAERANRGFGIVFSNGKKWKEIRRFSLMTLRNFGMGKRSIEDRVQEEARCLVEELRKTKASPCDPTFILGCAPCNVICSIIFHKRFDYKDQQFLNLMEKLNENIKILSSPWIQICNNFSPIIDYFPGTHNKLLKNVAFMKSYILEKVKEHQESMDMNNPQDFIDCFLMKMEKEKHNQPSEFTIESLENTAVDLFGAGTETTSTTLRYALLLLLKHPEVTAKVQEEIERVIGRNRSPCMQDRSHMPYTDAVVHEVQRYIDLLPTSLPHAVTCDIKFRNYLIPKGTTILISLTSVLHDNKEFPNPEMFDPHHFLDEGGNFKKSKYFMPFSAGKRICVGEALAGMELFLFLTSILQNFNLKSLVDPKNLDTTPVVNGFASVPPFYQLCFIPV

Compound	IC50 [2, 9] [µM]	IC50 [3, 10] [µM]	GI50 [1, 11] [µM]	GI50 ([4]; A549, MTT, 48 h) [µM]	GI50 ([5]; MCF7, MTT, 48 h) [µM]	GI50 ([6]; MIA PaCa-2, MTT, 48 h) [µM]	GI50 (human glioma U87 cells; MTT) [µM]	further results
GNE140 [reference compound]	–	–	–	–	–	–	–	GI50 ([1]; MTT, 48 h): 11.6 µM and 11.9 µM
O=C(CC(F)(F)F)OCc1ccc2c(c1)OCO2 [Compound 6]	452	130	> 1000	> 1000	> 1000	> 1000	> 1000	LDHB/LDHA [2]: 0.29
CCOC(=O)[C@H](CCc1ccccc1)N[C@@H](C)C(=O)N1CCC[C@H]1C(=O)O [Enalapril]	–	–	–	–	–	–	–	remaining at 0.5 h (in vitro [7]): 95%; remaining at 2 h (in vitro [7]): 93.7%; remaining at 0.5 h (in vitro [8]): 37.7%; remaining at 2 h (in vitro [8]): 1.8%
CC(=O)N1CCN(c2ccc(OCC3COC(Cn4ccnc4)(c4ccc(Cl)cc4Cl)O3)cc2)CC1 (stereo not drawn) [Ketoconazole, reference compound]	–	–	–	–	–	–	–	CYP1A2 isozyme activity (% of control activity) (CYP1A2): 99.1 % of control activity; CYP2C9 isozyme activity (% of control activity) (CYP2C9): 97.5 % of control activity; CYP2C19 isozyme activity (% of control activity) (CYP2C19): > 100 % of control activity
CCN(CC)CCOC(=O)c1ccc(N)cc1 [Procaine]	–	–	–	–	–	–	–	remaining at 5 min (in vitro [7]): 1.5%; remaining at 10 min (in vitro [7]): 0.4%; remaining at 0.5 h (in vitro [8]): 89.8%; remaining at 2 h (in vitro [8]): 52.6%
O=C(OCc1ccc2c(c1)OCO2)c1ccc([Se]c2ccccc2)cc1 [Compound 9]	–	–	–	–	–	–	–	IC50 [2]: > 1000 µM; IC50 ([3]; LDHB IC50, synthesized compounds): 1000 µM and 151 µM; GI50 ([1]; Homo sapiens, PANC-1, 48 h): 21.1 µM; GI50 ([4]; A549, 48 h): 925 µM; GI50 ([5]; MCF7, 48 h): 455 µM; GI50 ([6]; MIA PaCa-2, 48 h): 108 µM; GI50 (human glioma U87 cells): > 1000 µM
c1ccc2c(c1)OCO2 [1,3-benzodioxole]	–	–	–	–	–	–	–	LDHA inhibitory activity (LDHA): did not exhibit an LDHA inhibitory activity
OCc1ccc2c(c1)OCO2 [piperonyl alcohol]	–	–	–	–	–	–	–	LDHA inhibitory activity (LDHA): did not exhibit an LDHA inhibitory activity
COc1ncc(-c2ccc3c(Nc4cc(Oc5cc(F)cc(F)c5)cc(C(=O)O)c4)c(S(=O)(=O)NC4CC4)cnc3c2)c(OC)n1 [GSK2837808A, reference compound]	–	–	–	–	–	–	–	GI50 ([1]; MTT, 48 h): 11.3 µM
C[C@H](Cc1ccc2c(c1)OCO2)[C@@H](C)Cc1ccc2c(c1)OCO2 [Machilin A]	–	–	–	–	–	–	–	IC50 (LDHA): 84 µM

Now from value to compound, other results behind:

IC50 [2, 9] [µM]	IC50 [3, 10] [µM]	GI50 [1, 11] [µM]	GI50 ([4]; A549, MTT, 48 h) [µM]	GI50 ([5]; MCF7, MTT, 48 h) [µM]	GI50 ([6]; MIA PaCa-2, MTT, 48 h) [µM]	GI50 (human glioma U87 cells; MTT) [µM]	Compound	further results
> 1000	79	> 1000	> 1000	> 1000	> 1000	> 1000	O=C(OCc1ccc2c(c1)OCO2)c1ccc(Br)cc1 [Compound 1]	–
> 1000	248	86.5	> 1000	> 1000	> 1000	> 1000	Cc1ccc(C(=O)OCc2ccc3c(c2)OCO3)cc1 [Compound 8]	–
478	> 1000	644	> 1000	> 1000	> 1000	> 1000	O=C(OCc1ccc2c(c1)OCO2)c1ccc(F)cc1 [Compound 5]	–
843	> 1000	243	> 1000	> 1000	> 1000	> 1000	O=C(OCc1ccc2c(c1)OCO2)c1ccccc1 [Compound 7]	LDHB/LDHA [2]: > 1.18
> 1000	151	269	> 1000	> 1000	> 1000	> 1000	O=C(OCc1ccc2c(c1)OCO2)c1ccc(I)cc1 [Compound 3]	–
13.6	395	> 1000	> 1000	> 1000	> 1000	> 1000	O=C(OCc1ccc2c(c1)OCO2)c1ccc(C(F)(F)F)cc1 [Compound 2]	LDHB/LDHA [2]: 29.00; GI50 (several cancer cells): > 1000 µM
182	7.87	203	> 1000	729	> 1000	380	Nc1cccc(C(=O)OCc2ccc3c(c2)OCO3)c1 [Compound 4]	LDHB/LDHA [2]: 0.043

From article PMC7669867, “Synthesis and initial screening of lactate dehydrogenase inhibitor activity of 1,3-benzodioxole derivatives” (Scientific Reports, 2020)
